Here are results for 1 compound from US20220331310A1, “METHODS FOR ALLEVIATING PTERYGIUM-ASSOCIATED WORRY ABOUT EYE APPEARANCE” (Cloudbreak Therapeutics, LLC, priority 2019, published 2022).

This assay deals with Patients with Primary or Recurrent Pterygium. In words: Phase 2a vehicle-controlled study of nintedanib ophthalmic solution; patient questionnaire on symptoms and life impacts (1-5 scale). Particulars: 0.2% nintedanib ophthalmic solution, topical ocular, TID for 28 days, versus vehicle. In kind it is in vivo, human. As to the method:
A Phase 2a Multicenter, Randomized, Vehicle-Controlled, Dose Escalating Study to Evaluate the Safety, Efficacy and Pharmacokinetics of Nintedanib Ophthalmic Solution in Patients with Primary or Recurrent Pterygium
Objectives of the study were to evaluate ocular and systemic safety of nintedanib and its efficacy in reducing pterygium vascularity in primary or recurrent patients. Several other secondary endpoints were also assessed, including the assessment of symptoms and life impacts by using a questionnaire based on a numerical 1-5 scale. The double-masked, vehicle-controlled, parallel study was conducted with 28 days TID repeat ocular dosing of vehicle and 0.2% nintedanib.
The disclosure focused on the relevant questionnaire endpoint that included 15 questions regarding the ocular symptoms, vision related functioning and the impact on life quality in patients. The questionnaire was derived from the validated Visual Functioning Questionnaire-25 (VFQ-25) (National Eye Institute, 2000) and the validated Ocular Surface Disease Index (OSDI) questionnaire (Schiffman R M, Christianson M D, Jacobsen G, Hirsch J D, Reis B L. Reliability and validity of the Ocular Surface Disease Index. Arch Ophthalmol. 2000; 118 (5): 615-621.). The patients were asked to rate severity using a 5-point scale, with 5 being the most severe.

Regarding `COC(=O)c1ccc2c(c1)NC(=O)/C2=C(\Nc1ccc(N(C)C(=O)CN2CCN(C)CC2)cc1)c1ccccc1` [nintedanib], the “frequency of worry about eye appearance (question "Worry about eye appearance?", change of questionnaire score)” value (5-point scale, 5 most severe, FIG. 1) is given as “significantly better improvements than the vehicle group”. Also, the “questionnaire questions showing a significant difference between drug and vehicle” value (15-question questionnaire derived from VFQ-25 and OSDI) is recorded as “only one out of fifteen questions showed a significant difference”.
